Patent publication US10266525B2, “Processes for preparing 2-(6-(1H-indol-4-yl)-1H-indazol-4-yl)-5-((4-isopropylpiperazin-1-yl)methyl)oxazole” (GlaxoSmithKline Intellectual Property Development Limited, priority 2015, dated 2019)

Experiments:
[1] = solubility in simulated lung fluid; format: physicochemical
hygroscopicity = format: physicochemical

For `CC(C)N1CCN(Cc2cnc(-c3cc(-c4cccc5[nH]ccc45)cc4[nH]ncc34)o2)CC1.O=C(O)c1ccccc1` [benzoate salt of Compound A, 2-(6-(1H-Indol-4-yl)-1H-indazol-4-yl)-5-((4-isopropylpiperazin-1-yl)methyl)oxazole benzoate], the “solubility in simulated lung fluid” value [1] was “suitable” and the hygroscopicity (hygroscopicity) was “suitable”.
